Patent publication US20210369720A1, “SYNERGISTIC COMPOSITION HAVING NEUROPROTECTIVE PROPERTIES AND METHODS OF USE THEREOF” (Rutgers, The State University of New Jersey, priority 2018, published 2021)

What was measured:
[1] = test system: TH positive dopaminergic neurons of the substantia nigra; assay: Nigral TH positive neuron count, α-Syn PFF inoculated WT mice; assay type: in vivo; settings: each compound individually, PFF alone reduced neurons by 51% vs PBS
Description: (§1) Thy1-α-synuclein transgenic mice (Syn^Tg) on BDF1 background overexpressing human wild-type α-synuclein under the control of the Thy1 promoter were maintained by mating heterozygous transgenic females with WT BDF1 males (Rockenstein E, et al. (2002) Differential neuropathological alterations in transgenic mice expressing alpha-synuclein from the platelet-derived growth factor and Thy-1 promoters. J Neurosci Res 68(5):568-578). BDF1 mice (mixed C57BL/6-DBA/2) were generated every three months by mating female C57BL/6 (The Jackson Laboratory) and male DBA/2 mice (Charles River). Experiments were performed with male transgenic mice and their WT littermates. […] Wild-type littermates received regular water and control chow. […] At two months of age, mice were inoculated with α-Syn PFF unilaterally in the striatum. These treatments continued throughout the experiment until animals were sacrificed. Mice were weighed and their food and water intake was quantified weekly. Animals were housed 2-5/cage in an AAALAC approved facility in a temperature- and humidity-controlled environment under a 12-hour light/dark cycle and were maintained on a diet of lab chow and water ad libitum. […]

[2] = test system: Syn^Tg mice; assay: Morris Water Maze, Syn^Tg mice; assay type: in vivo; settings: EHT 12 mg/kg/day in chow and/or caffeine 50 mg/kg/day in drinking water from weaning until six months of age, vs untreated Syn^Tg mice
Description: as §1

[3] = test system: α-Syn PFF inoculated WT mice; assay: Morris Water Maze, α-Syn PFF inoculated WT mice; assay type: in vivo; settings: EHT 12 mg/kg/day and/or caffeine 50 mg/kg/day, 6 months post-inoculation, test also not affected by PFF inoculation
Description: as §1

[4] = test system: Tyrosine hydroxylase (TH); assay: Striatal TH staining, α-Syn PFF inoculated WT mice; assay type: in vivo; settings: EHT 12 mg/kg/day and/or caffeine 50 mg/kg/day, vs untreated α-Syn PFF inoculated mice
Description: as §1

[5] = test system: A53T mutant α-synuclein fibril injections in the striatum; settings: mice, chronic caffeine treatment; cited from earlier work
[6] = test system: PP2A; assay: Western blot of PP2A methylation in SH-SY5Y cells challenged with α-Syn PFF; assay type: cell-based, Human; settings: SH-SY5Y cells challenged with mouse α-Syn PFF for 7 days; caffeine and/or EHT added to the medium
Description: (§2) Human neuroblastoma SH-SY5Y cells were cultured in DMEM-F12 with 10% FBS. At 50% confluency, cells were treated with 1 gg/ml mouse α-Syn PFF in DMEM-F12 with 1% FBS for 7 days. Medium was refreshed every 3 days. Cell harvesting was done with 2% SDS in PBS supplemented with protease inhibitor (Millipore) and phosphatase inhibitor (Sigma-Aldrich). Lysates were sonicated and boiled at 95° C. for 5 minutes. Protein concentration was determined by bicinchonic acid (BCA) method (Pierce), equal amount of protein was separated on 5-20% SDS-PAGE gel (Genescript) and transferred to nitrocellulose or PVDF membrane (Biorad). Following transfer, membranes were blocked for 1 hour at room temperature in blocking buffer (Li-Cor) or 5% (w/v) BSA/TBS-Tween 0.1% (v/v). Primary antibodies were diluted in blocking buffer or 5% (w/v) BSA/TBS-Tween 0.1% (v/v) and incubated with the membranes at 4° C. overnight. Membranes were washed three times in TBS-Tween and incubated in diluted IRDye 800CW or HRP conjugated secondary antibody for 1 hour at room temperature. Following washing, membranes were scanned by Li-Cor Odyssey CLx infrared imaging system or treated with the Western Lightning ECL-plus reagents (PerkinElmer) and exposed to autoradiography films (LabScientific).

[7] = test system: Syn^Tg mice; assay: Rotarod, Syn^Tg mice; assay type: in vivo; settings: EHT 12 mg/kg/day in chow and/or caffeine 50 mg/kg/day in drinking water from weaning until six months of age, vs untreated Syn^Tg mice
Description: as §1

[8] = test system: Syn^Tg mice; assay: Wire Hang test, Syn^Tg mice; assay type: in vivo; settings: EHT 12 mg/kg/day in chow and/or caffeine 50 mg/kg/day in drinking water from weaning until six months of age, vs untreated Syn^Tg mice
Description: as §1

[9] = test system: Syn^Tg mice; assay: Nesting behavior, Syn^Tg mice; assay type: in vivo; settings: EHT 12 mg/kg/day in chow and/or caffeine 50 mg/kg/day in drinking water from weaning until six months of age, vs untreated Syn^Tg mice
Description: as §1

[10] = test system: dopamine; assay: Striatal dopamine content by HPLC-MS, α-Syn PFF inoculated WT mice; assay type: in vivo; settings: each compound alone, EHT 12 mg/kg/day or caffeine 50 mg/kg/day, vs untreated α-Syn PFF inoculated mice
Description: as §1

[11] = test system: SH-SY5Y cells; assay: Cytotoxicity of α-Syn PFF by propidium iodide (PI) exclusion in SH-SY5Y cells; assay type: cell-based, Human; settings: SH-SY5Y cells challenged with mouse α-Syn PFF for seven days; vs untreated α-Syn PFF-challenged cells (2.5 fold increase of PI positive cells)
[12] = test system: MAP2; assay: Immunofluorescence staining of MAP2 in the cortex, Syn^Tg mice; assay type: in vivo; settings: EHT 12 mg/kg/day and/or caffeine 50 mg/kg/day until six months of age
Description: as §1

[13] = test system: PP2A; assay: Western blot of PP2A methylation, striatal tissue lysates of Syn^Tg mice; assay type: in vivo; settings: normalized to total PP2A, EHT 12 mg/kg/day and/or caffeine 50 mg/kg/day
Description: (§3) Thy1-α-synuclein transgenic mice (Syn^Tg) on BDF1 background overexpressing human wild-type α-synuclein under the control of the Thy1 promoter were maintained by mating heterozygous transgenic females with WT BDF1 males (Rockenstein E, et al. (2002) Differential neuropathological alterations in transgenic mice expressing alpha-synuclein from the platelet-derived growth factor and Thy-1 promoters. J Neurosci Res 68(5):568-578). BDF1 mice (mixed C57BL/6-DBA/2) were generated every three months by mating female C57BL/6 (The Jackson Laboratory) and male DBA/2 mice (Charles River). Experiments were performed with male transgenic mice and their WT littermates. […] Wild-type littermates received regular water and control chow. […] At two months of age, mice were inoculated with α-Syn PFF unilaterally in the striatum. These treatments continued throughout the experiment until animals were sacrificed. Mice were weighed and their food and water intake was quantified weekly. Animals were housed 2-5/cage in an AAALAC approved facility in a temperature- and humidity-controlled environment under a 12-hour light/dark cycle and were maintained on a diet of lab chow and water ad libitum. All animal procedures were approved by the Rutgers-Robert Wood Johnson Medical School Institutional Animal Care and Use Committee and were performed according to the National Institutes of Health Guide for the Care and Use of Laboratory Animals.
as §2

[14] = test system: p-α-Syn; assay: Western blot of p-α-Syn in SH-SY5Y cells challenged with α-Syn PFF; assay type: cell-based, Human; settings: SH-SY5Y cells challenged with mouse α-Syn PFF for 7 days; caffeine and/or EHT added to the medium
Description: as §2

[15] = test system: PP2A; assay: Western blot of PP2A methylation, ipsilateral striatal tissue lysates of α-Syn PFF inoculated mice; assay type: in vivo; settings: EHT 12 mg/kg/day and/or caffeine 50 mg/kg/day, vs untreated α-Syn PFF inoculated mice
Description: as §3
α-Syn PFF solution was sonicated at 60% amplitude 30 times (0.5 sec on, 0.5 sec off). During the stereotactic surgery, two month old WT C57BL/6 mice were anesthetized by Ketamine/xylazine (90/4.5 mg/kg, i.p., Ketaset from Zoetis, and Anased from Akorn) and positioned in a digital stereotaxic apparatus (Stoelting, Wood Dale, Ill.). […]
(§4) Human neuroblastoma SH-SY5Y cells were cultured in DMEM-F12 with 10% FBS. […] Protein concentration was determined by bicinchonic acid (BCA) method (Pierce), equal amount of protein was separated on 5-20% SDS-PAGE gel (Genescript) and transferred to nitrocellulose or PVDF membrane (Biorad). […]

[16] = test system: α-Syn PFF inoculated WT mice; assay: Wire Hang test, α-Syn PFF inoculated WT mice; assay type: in vivo; settings: EHT 12 mg/kg/day in diet and/or caffeine 50 mg/kg/day in drinking water from weaning, 6 months post-inoculation
Description: as §1

[17] = test system: α-Syn PFF inoculated WT mice; assay: Nesting behavior, α-Syn PFF inoculated WT mice; assay type: in vivo; settings: EHT 12 mg/kg/day in diet and/or caffeine 50 mg/kg/day in drinking water from weaning, 6 months post-inoculation
Description: as §1

[18] = test system: phosphorylated α-synuclein (p-α-Syn); assay: Immunohistochemical staining of p-α-Syn, α-Syn PFF inoculated WT mice; assay type: in vivo; settings: EHT 12 mg/kg/day and/or caffeine 50 mg/kg/day, vs untreated α-Syn PFF inoculated mice
Description: as §3
α-Syn PFF solution was sonicated at 60% amplitude 30 times (0.5 sec on, 0.5 sec off). During the stereotactic surgery, two month old WT C57BL/6 mice were anesthetized by Ketamine/xylazine (90/4.5 mg/kg, i.p., Ketaset from Zoetis, and Anased from Akorn) and positioned in a digital stereotaxic apparatus (Stoelting, Wood Dale, Ill.). A midline sagittal incision was made in the scalp, and a hole was drilled in the skull over the right striatum according to the coordinates below. All injections were made using a Hamilton neuros syringe equipped with a 33 gauge needle and attached to a Quintessential Stereotaxic Injector (Stoelting, Wood Dale, Ill.). A total of 5∝g/2.5 ul of α-Syn PFF was infused in the dorsal striatum (+0.2 mm relative to Bregma, +2.0 mm from midline, +2.6 mm beneath the dura) at a delivery rate of 0.2∝l/min (61). The needle was kept in place for 5 min following the infusion to prevent reflux before withdrawing.
Immunohistochemical analyses were performed as described previously (Lee et al., 2011; 2012). Mice were perfused transcardially with PBS, and brains were removed and post-fixed in 10% formalin at 4° C. overnight. Fixed brains were then sectioned coronally in 30 am thickness using a cryostat and collected as sets of slices with the same interval. Free-floating sections were blocked by 1% BSA and 0.2% Triton X100 in PBS. Sections were then incubated with primary antibody overnight at 4° C. and biotinylated secondary antibody for 1 hour at room temperature.
Vectastain elite ABC kit (Vector Laboratories, Burlingame, Calif.) and 3,3′-diaminobenzidine (Sigma-Aldrich) were used for amplifying and color development. Images were captured by Nikon Eclipse 55i. Staining intensity and phosphorylated α-synuclein (p-α-Syn) aggregate counts were obtained by Image Pro Plus. Intensity calibration was set to the level of a blank area in each image. HSI (hue, saturation and intensity) was used for the color selection with the standard parameters of H: 0-30, S: 0-255 and I: 0-160. […]

[19] = test system: α-Syn PFF inoculated WT mice; assay: Rotarod, α-Syn PFF inoculated WT mice; assay type: in vivo; settings: EHT 12 mg/kg/day in diet and/or caffeine 50 mg/kg/day in drinking water from weaning, 6 months post-inoculation
Description: as §1

[20] = test system: phosphorylated α-synuclein (p-α-Syn); assay: Western blot of p-α-Syn in cortical tissue lysates, Syn^Tg mice; assay type: in vivo; settings: EHT 12 mg/kg/day and/or caffeine 50 mg/kg/day until six months of age, vs untreated Syn^Tg mice
Description: as §1, with “weekly.” for “weekly. Animals were housed 2-5/cage in an AAALAC approved facility in a temperature- and humidity-controlled environment under a 12-hour light/dark cycle and were maintained on a diet of lab chow and water ad libitum.”
as §4

Structure (SMILES): Cn1c(=O)c2c(ncn2C)n(C)c1=O [Caffeine, 1,3,7-trimethylxanthine, reference compound]
- prevention of the reduction of TH positive dopaminergic neurons of the substantia nigra [1]: did not prevent this reduction
- performance on the Morris Water Maze [2]: did not show any improvement
- Learning and memory task on the Morris Water Maze [3]: not affected
- TH staining of dopaminergic terminals in the striatum (ipsilateral and contralateral) [4]: no effect
- protection against A53T mutant α-synuclein fibril injections in the striatum [5]: protect
- demethylated PP2A levels [6]: partially reversed this trend
- methylated PP2A levels [6]: partially reversed this trend
- performance on the rotarod [7]: did not show any improvement
- performance on the wire hang test [8]: did not show any improvement
- nesting behavior [9]: did not show any improvement
- dopamine (DA) content in lysates of the ipsilateral striatum, benefit in words [10]: did not have a significant benefit
- cytotoxicity of α-Syn PFF, number of PI positive cells (cell viability) [11]: modestly protected
- MAP2 in the cortex (neuritic integrity) [12]: did not improve this profile
- Demethylated PP2A (demethyl-PP2A) levels [13]: not affected
- Methylated PP2A (Methyl-PP2A) levels [13]: did not change
- p-α-Syn levels [14]: no effect
- methyl-PP2A levels [15]: insignificant increase
- performance on the wire hang test [16]: did not affect performance
- nesting behavior (nest building) [17]: did not affect performance
- p-α-Syn in the contralateral striatum [18]: partially but insignificantly reduced
- p-α-Syn in the ipsilateral striatum [18]: partially but insignificantly reduced
- performance on the rotarod [19]: did not affect performance
- p-α-Syn levels by Western blot, cortical tissue lysates [20]: no significant effect
